Data: ChEMBL document CHEMBL1126433 (Bioorg Med Chem Lett, 1992)
Each block holds one compound with its values, some of them ahead of it. Calls of active or inactive are those of the source. No cut-off for these calls is given here.

Assays:
[1] = molecular target: T1, Polyunsaturated fatty acid 5-lipoxygenase (Rattus norvegicus) (UniProt P12527); assay: Compound was evaluated for its inhibitory activity against 5-LO (5-lipoxygenase) at 10 uM concentration in intact RBL-1 cell line assay; format: cell-based
T1 sequence (whole entry): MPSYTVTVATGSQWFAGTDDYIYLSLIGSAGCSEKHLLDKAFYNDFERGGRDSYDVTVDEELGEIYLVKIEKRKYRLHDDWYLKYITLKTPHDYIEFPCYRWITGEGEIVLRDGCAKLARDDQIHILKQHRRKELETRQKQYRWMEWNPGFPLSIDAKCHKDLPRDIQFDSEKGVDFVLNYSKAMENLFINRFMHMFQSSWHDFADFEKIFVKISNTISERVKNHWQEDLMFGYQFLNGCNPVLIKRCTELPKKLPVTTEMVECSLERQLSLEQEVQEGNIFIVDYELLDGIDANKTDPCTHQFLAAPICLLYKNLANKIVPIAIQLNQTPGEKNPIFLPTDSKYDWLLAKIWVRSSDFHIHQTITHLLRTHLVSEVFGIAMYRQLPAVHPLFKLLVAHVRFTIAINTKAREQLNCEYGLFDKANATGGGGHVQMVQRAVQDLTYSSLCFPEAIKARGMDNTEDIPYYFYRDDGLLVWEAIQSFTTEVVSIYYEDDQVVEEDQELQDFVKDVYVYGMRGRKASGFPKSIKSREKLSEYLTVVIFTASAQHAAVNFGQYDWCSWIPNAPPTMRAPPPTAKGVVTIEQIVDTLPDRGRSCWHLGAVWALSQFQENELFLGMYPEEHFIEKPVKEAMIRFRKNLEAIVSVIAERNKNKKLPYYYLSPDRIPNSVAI

[2] = molecular target: T2, Cyclooxygenase (Rattus norvegicus) (UniProt P35355+Q63921); assay: Compound was evaluated for its inhibitory activity against CO(cyclooxygenase) at 10 uM concentration in intact RBL-1 cell line assay; format: cell-based
[3] = molecular target: T3, Polyunsaturated fatty acid 5-lipoxygenase (Rattus norvegicus, UniProt P12527); assay: Compound was evaluated for its inhibitory activity against 5-LO (5-lipoxygenase) in intact RBL-1 cell line assay; format: cell-based
T3 sequence (P12527 whole entry): T1 sequence (whole entry)

[4] = molecular target: T4, Cyclooxygenase (Rattus norvegicus, UniProt P35355+Q63921); assay: Compound was evaluated for its inhibitory activity against CO(cyclooxygenase); format: protein assay
T4 sequence (P35355 whole entry): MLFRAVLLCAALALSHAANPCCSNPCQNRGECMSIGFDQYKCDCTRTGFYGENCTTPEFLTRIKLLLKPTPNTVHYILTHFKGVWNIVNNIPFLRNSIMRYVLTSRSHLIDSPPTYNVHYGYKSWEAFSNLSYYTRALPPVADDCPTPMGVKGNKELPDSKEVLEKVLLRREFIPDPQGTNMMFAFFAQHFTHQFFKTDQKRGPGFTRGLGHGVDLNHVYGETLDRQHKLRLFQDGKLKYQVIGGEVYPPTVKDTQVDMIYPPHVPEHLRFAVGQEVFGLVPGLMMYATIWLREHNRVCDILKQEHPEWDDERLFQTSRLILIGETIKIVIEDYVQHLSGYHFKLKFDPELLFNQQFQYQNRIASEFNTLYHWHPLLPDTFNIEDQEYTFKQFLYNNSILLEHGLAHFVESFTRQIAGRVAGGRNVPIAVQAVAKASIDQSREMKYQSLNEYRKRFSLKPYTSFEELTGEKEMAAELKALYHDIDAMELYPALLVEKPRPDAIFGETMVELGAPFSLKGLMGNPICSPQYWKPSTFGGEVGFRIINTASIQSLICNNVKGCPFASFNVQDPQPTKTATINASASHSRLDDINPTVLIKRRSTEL
T4 sequence (Q63921 whole entry): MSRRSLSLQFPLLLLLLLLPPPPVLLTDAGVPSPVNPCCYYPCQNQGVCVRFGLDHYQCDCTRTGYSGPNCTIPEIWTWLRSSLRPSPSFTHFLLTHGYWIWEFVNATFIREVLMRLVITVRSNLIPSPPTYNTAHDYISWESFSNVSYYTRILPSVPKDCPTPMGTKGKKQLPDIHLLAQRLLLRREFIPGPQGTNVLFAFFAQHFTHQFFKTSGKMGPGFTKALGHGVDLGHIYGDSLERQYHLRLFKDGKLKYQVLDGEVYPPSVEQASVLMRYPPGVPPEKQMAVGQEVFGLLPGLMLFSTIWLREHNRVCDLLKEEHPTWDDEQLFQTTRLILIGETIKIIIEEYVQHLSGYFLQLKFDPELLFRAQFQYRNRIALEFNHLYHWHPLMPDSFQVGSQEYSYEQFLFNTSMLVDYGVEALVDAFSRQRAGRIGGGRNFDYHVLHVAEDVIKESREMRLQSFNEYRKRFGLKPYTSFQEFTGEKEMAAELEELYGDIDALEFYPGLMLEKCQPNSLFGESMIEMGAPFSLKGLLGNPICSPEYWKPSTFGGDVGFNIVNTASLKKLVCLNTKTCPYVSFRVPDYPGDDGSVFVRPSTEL

[5] = molecular target: T4, Cyclooxygenase; assay: Compound was evaluated for its inhibitory activity against CO(cyclooxygenase) in intact RBL-1 cell line assay; format: cell-based
[6] = molecular target: T1, Polyunsaturated fatty acid 5-lipoxygenase (Rattus norvegicus); assay: Compound was evaluated for its inhibitory activity against 5-LO (5-lipoxygenase) at 10 uM concentration in intact RBL-1 cell line assay; Less than 5% inhibition at 10 uM reported as not active; format: cell-based
[7] = molecular target: T2, Cyclooxygenase (Rattus norvegicus); assay: Compound was evaluated for its inhibitory activity against CO(cyclooxygenase) at 10 uM concentration in intact RBL-1 cell line assay; Less than 5% inhibition at 10 uM reported as not active; format: cell-based

Structure (SMILES): Cc1ccc(Cl)c(Nc2ccccc2/C=C2\SC(N)=NC2=O)c1Cl
inhibition [1]: 35%
inhibition [2]: 20%

Structure (SMILES): COc1ccc2c(c1)c(CC(=O)O)c(C)n2C(=O)c1ccc(Cl)cc1 [INDOMETHACIN]
IC50 [3]: > 100 µM

Structure (SMILES): Cc1ccc(Cl)c(Nc2ccccc2/C=C2\SC(=S)N(CC(=O)O)C2=O)c1Cl
inhibition [2]: 33%

More lines, now with the values ahead:

IC50 [4]: 6 µM
Structure (SMILES): Cc1ccc(Cl)c(Nc2ccccc2/C=C2\SC(=S)NC2=O)c1Cl

IC50 [5]: 2 µM
IC50 [3]: 1.4 µM
Structure (SMILES): COc1ccc2c(c1)c(/C=C1/SC(=S)NC1=O)c(C)n2C(=O)c1ccc(Cl)cc1

IC50 [5]: 10.2 µM
IC50 [3]: 1.5 µM
Structure (SMILES): Cc1ccc(Cl)c(Nc2ccccc2/C=C2\SC(NC#N)=NC2=O)c1Cl

inhibition [6]: inactive
inhibition [2]: 32%
Structure (SMILES): Cc1ccc(Cl)c(Nc2ccccc2/C=C2\SC(=S)N(C)C2=O)c1Cl

inhibition [7]: inactive
inhibition [1]: 30%
Structure (SMILES): Cc1ccc(Cl)c(Nc2ccccc2/C=C2\SC(=O)NC2=O)c1Cl
